Results reported in patent publication US4160829A, “Antibacterial 1,2,4-oxadiazolylacetamido cephalosporins” (Gist-Brocades N.V., priority 1972, dated 1979).
In brackets after ≈: the same amount, converted by molar mass. Where two headings read alike, the source gives them in different places.

Experiments:
[1] = test system: Prot.mirab. A 1200; test: agar serial dilution test; assay type: cell-based, Proteus mirabilis; conditions: Proteus mirabilis, 24 h, read-out: minimal inhibitory concentration (MIC)
[2] = test system: Prot.morg. 2241; test: agar serial dilution test; assay type: cell-based; conditions: 24 h, agar serial dilution, 24 hours, 37° C.; read-out: minimal inhibitory concentration (MIC)
[3] = test system: Staph.aureus A 2000; test: micro serial dilution test; assay type: cell-based, Staphylococcus aureus; conditions: Staphylococcus aureus, A2000, 18 h, micro serial dilution (in brackets), about 18 hours, 30° C. or 37° C.; read-out: minimal inhibitory concentration (MIC)
[4] = test system: Staph.aureus A 2001; test: agar serial dilution test; assay type: cell-based, Staphylococcus aureus; conditions: Staphylococcus aureus, A2001, 24 h, read-out: minimal inhibitory concentration (MIC)
[5] = test system: Haem.infl. A 1030; test: micro serial dilution test; assay type: cell-based; conditions: 18 h, micro serial dilution (in brackets), about 18 hours, 30° C. or 37° C.; read-out: minimal inhibitory concentration (MIC)
[6] = test system: Prot.mirab. L 93; test: agar serial dilution test; assay type: cell-based, Proteus mirabilis; conditions: Proteus mirabilis; agar serial dilution, 24 hours, 37° C.; read-out: minimal inhibitory concentration (MIC)
[7] = test system: Prot.rettg. A 821; test: agar serial dilution test; assay type: cell-based, Proteus rettgeri; conditions: Providencia rettgeri, 24 h, read-out: minimal inhibitory concentration (MIC)
[8] = test system: Staph.aureus A 2000; test: agar serial dilution test; assay type: cell-based, Staphylococcus aureus; conditions: Staphylococcus aureus, A2000, 24 h, agar serial dilution, 24 hours, 37° C.; read-out: minimal inhibitory concentration (MIC)
[9] = test system: Pseud.aerug. 2396; test: agar serial dilution test; assay type: cell-based; conditions: agar serial dilution, 24 hours, 37° C.; read-out: minimal inhibitory concentration (MIC)
[10] = test system: Prot.mirab. H 3; test: agar serial dilution test; assay type: cell-based, Proteus mirabilis; conditions: Proteus mirabilis; agar serial dilution, 24 hours, 37° C.; read-out: minimal inhibitory concentration (MIC)
[11] = test system: Pseud.aerug. H 10; test: agar serial dilution test; assay type: cell-based; conditions: agar serial dilution, 24 hours, 37° C.; read-out: minimal inhibitory concentration (MIC)
[12] = test system: Strep. faec. L 80; test: agar serial dilution test; assay type: cell-based, Streptococcus faecalis; conditions: Enterococcus faecalis; agar serial dilution, 24 hours, 37° C.; read-out: minimal inhibitory concentration (MIC)
[13] = test system: Staph.aureus A 355; test: micro serial dilution test; assay type: cell-based, Staphylococcus aureus; conditions: Staphylococcus aureus, A355; micro serial dilution (in brackets), about 18 hours, 30° C. or 37° C.; penicillinase-producing strain; read-out: minimal inhibitory concentration (MIC)
[14] = test system: Esch.coli U 20; test: agar serial dilution test; assay type: cell-based, Escherichia coli; conditions: Escherichia coli
[15] = test system: Staph.aureus A 355; test: agar serial dilution test; conditions: Staphylococcus aureus, A355, 24 h, read-out: minimal inhibitory concentration (MIC), agar serial dilution, 24 hours, 37° C.; penicillinase-producing strain
[16] = test system: Salm.dubl. P 43; test: agar serial dilution test; assay type: cell-based, Salmonella dublin; conditions: Salmonella enterica, read-out: minimal inhibitory concentration (MIC)
[17] = test system: Kleb.pneum. A 809; test: agar serial dilution test; assay type: cell-based, Klebsiella pneumoniae; conditions: Klebsiella pneumoniae; agar serial dilution, 24 hours, 37° C.; read-out: minimal inhibitory concentration (MIC)
[18] = test system: Dipl.pneum. L 54; test: agar serial dilution test; assay type: cell-based, Diplococcus pneumoniae; conditions: Streptococcus pneumoniae; agar serial dilution, 24 hours, 37° C.; read-out: minimal inhibitory concentration (MIC)
[19] = test system: Salm.typh. R 127; test: agar serial dilution test; assay type: cell-based; conditions: 24 h, 37° C., read-out: minimal inhibitory concentration (MIC)
[20] = test system: Past.multo. A 723; test: agar serial dilution test; assay type: cell-based, Pasteurella multocida; conditions: Pasteurella multocida; agar serial dilution, 24 hours, 37° C.; read-out: minimal inhibitory concentration (MIC)
[21] = test system: Strep.haem. A 266; test: agar serial dilution test; assay type: cell-based, Streptococcus haemolyticus; conditions: Streptococcus; agar serial dilution, 24 hours, 37° C.; read-out: minimal inhibitory concentration (MIC)
[22] = test system: Bruc.melit. A 488; test: microbe, parasite or virus in culture; assay type: cell-based; conditions: Brucella melitensis, 24 h, read-out: minimal inhibitory concentration (MIC)
[23] = test system: Shig.equir. T 3; test: agar serial dilution test; assay type: cell-based; conditions: 24 h, 37° C., read-out: minimal inhibitory concentration (MIC)
[24] = test system: Staph.aureus A 321; test: agar serial dilution test; assay type: cell-based, Staphylococcus aureus; conditions: Staphylococcus aureus, A321, 24 h, agar serial dilution, 24 hours, 37° C.; read-out: minimal inhibitory concentration (MIC)
[25] = test system: Bac.Subt.ATCC 6633; test: agar serial dilution test; assay type: cell-based, Bacillus subtilis; conditions: Bacillus subtilis, ATCC6633, 24 h, agar serial dilution, 24 hours, 37° C.; read-out: minimal inhibitory concentration (MIC)
[26] = test system: Pseud.aerug. Wyeth A 1058; test: agar serial dilution test; assay type: cell-based; conditions: agar serial dilution, 24 hours, 37° C.; read-out: minimal inhibitory concentration (MIC)
[27] = test system: Staph.aureus A 2001; test: micro serial dilution test; assay type: cell-based, Staphylococcus aureus; conditions: Staphylococcus aureus, A2001, 18 h, micro serial dilution (in brackets), about 18 hours, 30° C. or 37° C.; read-out: minimal inhibitory concentration (MIC)
[28] = agar serial dilution, 24 hours, 37° C.
[29] = U20, agar serial dilution, 24 hours, 37° C., read-out: minimal inhibitory concentration (MIC)
[30] = U20, 24 h, read-out: minimal inhibitory concentration (MIC), agar serial dilution, 24 hours, 37° C.

Structure (SMILES)	MIC [2]	MIC [3]	MIC [5]	MIC [6]	MIC [8]	MIC [9]	MIC [10]	MIC [11]	MIC [12]	MIC [13]	MIC [15]	MIC [17]	MIC [18]	MIC [19]	MIC [20]	MIC [21]	MIC [22]	MIC [23]	MIC [24]	MIC [25]	other results
CC1=C(C(=O)O)N2C(=O)[C@@H](NC(=O)Cc3nc(Cc4ccccc4)no3)[C@H]2SC1 [Example 7, 7-[(3-benzyl-1,2,4-oxadiazol-5-yl)-acetamido]-desacetoxycephalosporanic acid]	> 100 µg/mL	4 µg/mL (≈ 9.65 µM)	30 µg/mL (≈ 72.4 µM)	> 100 µg/mL	25 µg/mL (≈ 60.3 µM)	> 100 µg/mL	> 100 µg/mL	> 100 µg/mL	100 µg/mL (≈ 241 µM)	8 µg/mL (≈ 19.3 µM)	100 µg/mL (≈ 241 µM)	100 µg/mL (≈ 241 µM)	4 µg/mL (≈ 9.65 µM)	> 100 µg/mL	25 µg/mL (≈ 60.3 µM)	25 µg/mL (≈ 60.3 µM)	25 µg/mL (≈ 60.3 µM)	> 100 µg/mL	3 µg/mL (≈ 7.24 µM)	3 µg/mL (≈ 7.24 µM)	MIC [1, 28]: > 100 µg/mL; MIC [4, 28]: 6 µg/mL (≈ 14.5 µM); MIC [7, 28]: > 100 µg/mL; MIC [14, 29]: > 100 µg/mL; MIC [16, 28]: 100 µg/mL (≈ 241 µM); MIC [26]: > 100 µg/mL; MIC [27]: 5 µg/mL (≈ 12.1 µM)
CC(=O)OCC1=C(C(=O)O)N2C(=O)[C@@H](NC(=O)Cc3nc(-c4c(Cl)cccc4Cl)no3)[C@H]2SC1 [Example 11C, 7-{[3-(2,6-dichlorophenyl)-1,2,4-oxadiazol-5-yl]-acetamido}cephalosporanicacid]	> 100 µg/mL	0.18 µg/mL (≈ 0.341 µM)	23 µg/mL (≈ 43.6 µM)	100 µg/mL (≈ 190 µM)	0.5 µg/mL (≈ 0.948 µM)	> 100 µg/mL	> 100 µg/mL	> 100 µg/mL	1.5 µg/mL (≈ 2.84 µM)	0.69 µg/mL (≈ 1.31 µM)	0.5 µg/mL (≈ 0.948 µM)	12.5 µg/mL (≈ 23.7 µM)	0.06 µg/mL (≈ 0.114 µM)	> 100 µg/mL	6 µg/mL (≈ 11.4 µM)	0.03 µg/mL (≈ 0.0569 µM)	6 µg/mL (≈ 11.4 µM)	25 µg/mL (≈ 47.4 µM)	0.12 µg/mL (≈ 0.228 µM)	0.12 µg/mL (≈ 0.228 µM)	MIC [1, 28]: > 100 µg/mL; MIC [4, 28]: 0.5 µg/mL (≈ 0.948 µM); MIC [7, 28]: 3 µg/mL (≈ 5.69 µM); MIC [14, 29]: > 100 µg/mL; MIC [16, 28]: > 100 µg/mL; MIC [26]: > 100 µg/mL; MIC [27]: 0.25 µg/mL (≈ 0.474 µM)
CC(=O)OCC1=C(C(=O)O)N2C(=O)[C@@H](NC(=O)Cc3noc(C)n3)[C@H]2SC1 [Example 11D, 7-[(5-methyl-1,2,4-oxadiazol-3-yl)-acetamido]-cephalosporanic acid]	> 100 µg/mL	1.2 µg/mL (≈ 3.03 µM)	90 µg/mL (≈ 227 µM)	6 µg/mL (≈ 15.1 µM)	3 µg/mL (≈ 7.57 µM)	> 100 µg/mL	6 µg/mL (≈ 15.1 µM)	> 100 µg/mL	100 µg/mL (≈ 252 µM)	6 µg/mL (≈ 15.1 µM)	6 µg/mL (≈ 15.1 µM)	6 µg/mL (≈ 15.1 µM)	1.5 µg/mL (≈ 3.78 µM)	12.5 µg/mL (≈ 31.5 µM)	6 µg/mL (≈ 15.1 µM)	0.5 µg/mL (≈ 1.26 µM)	10 µg/mL (≈ 25.2 µM)	1.5 µg/mL (≈ 3.78 µM)	1 µg/mL (≈ 2.52 µM)	0.5 µg/mL (≈ 1.26 µM)	MIC [1]: 12.5 µg/mL (≈ 31.5 µM); MIC [4, 28]: 3 µg/mL (≈ 7.57 µM); MIC [7, 28]: 40 µg/mL (≈ 101 µM); MIC [14, 30]: 12.5 µg/mL (≈ 31.5 µM); MIC ([16]; 24 h): 12.5 µg/mL (≈ 31.5 µM); MIC [26]: > 100 µg/mL; MIC [27]: 0.6 µg/mL (≈ 1.51 µM)
CC1=C(C(=O)O)N2C(=O)[C@@H](NC(=O)Cc3nc(C)no3)[C@H]2SC1 [Example 11F, 7-[(3-methyl-1,2,4-oxadiazol-5-yl)-acetamido]-desacetoxycephalosporanic acid]	> 100 µg/mL	15 µg/mL (≈ 44.3 µM)	125 µg/mL (≈ 369 µM)	> 100 µg/mL	50 µg/mL (≈ 148 µM)	> 100 µg/mL	> 100 µg/mL	> 100 µg/mL	> 100 µg/mL	15 µg/mL (≈ 44.3 µM)	50 µg/mL (≈ 148 µM)	100 µg/mL (≈ 296 µM)	50 µg/mL (≈ 148 µM)	> 100 µg/mL	100 µg/mL (≈ 296 µM)	6 µg/mL (≈ 17.7 µM)	6 µg/mL (≈ 17.7 µM)	12.5 µg/mL (≈ 36.9 µM)	6 µg/mL (≈ 17.7 µM)	6 µg/mL (≈ 17.7 µM)	MIC [1, 28]: > 100 µg/mL; MIC [4]: 12.5 µg/mL (≈ 36.9 µM); MIC [7, 28]: > 100 µg/mL; MIC [14, 29]: > 100 µg/mL; MIC [16, 28]: 100 µg/mL (≈ 296 µM); MIC [26]: > 100 µg/mL; MIC [27]: 8 µg/mL (≈ 23.6 µM)
Cc1nc(CC(=O)N[C@@H]2C(=O)N3C(C(=O)O)=C(CN=[N+]=[N-])CS[C@H]23)no1 [Example 18, 7-[(5-methyl-1,2,4-oxadiazol-3-yl)-acetamido]-3-azidomethyl-3-cephem-4-carboxylic acid]	> 100 µg/mL	1.2 µg/mL (≈ 3.16 µM)	6 µg/mL (≈ 15.8 µM)	6 µg/mL (≈ 15.8 µM)	1.5 µg/mL (≈ 3.95 µM)	> 100 µg/mL	25 µg/mL (≈ 65.9 µM)	> 100 µg/mL	> 100 µg/mL	1.2 µg/mL (≈ 3.16 µM)	1.5 µg/mL (≈ 3.95 µM)	6 µg/mL (≈ 15.8 µM)	3 µg/mL (≈ 7.91 µM)	12.5 µg/mL (≈ 33 µM)	10 µg/mL (≈ 26.4 µM)	0.25 µg/mL (≈ 0.659 µM)	6 µg/mL (≈ 15.8 µM)	3 µg/mL (≈ 7.91 µM)	1 µg/mL (≈ 2.64 µM)	1 µg/mL (≈ 2.64 µM)	MIC [1, 28]: 25 µg/mL (≈ 65.9 µM); MIC [4, 28]: 1 µg/mL (≈ 2.64 µM); MIC [7]: 12.5 µg/mL (≈ 33 µM); MIC [14, 30]: 12.5 µg/mL (≈ 33 µM); MIC [16, 28]: 6 µg/mL (≈ 15.8 µM); MIC [26]: > 100 µg/mL; MIC [27]: 0.9 µg/mL (≈ 2.37 µM)
